# Data published in PMC8190750 (Cell Research, 2021).
# Numbered stars: 1 amine (or outer) side, 2 acyl side, 3 side chain; on linkers, the order of the positions; unused ones are H or OH. Bridge positions count the residues as written; N and C are the ends. Square brackets hold non-standard residues; d marks the D form. Peptide text beside a SMILES is read from it. * marks the point of attachment. X1 = CC[C@H](C)[C@@H](N[*:1])[C@@H](O)CC(=O)O[C@H](C(=O)[C@H](C)C(=O)[*:2])C(C)C; NMeY = CN[C@@H](Cc1ccc(O)cc1)C(=O)O; dNMeL = CN[C@H](CC(C)C)C(=O)O; Pyruvoyl = CC(=O)C(=O)*
# Key:
# 2-E channels = 2-E channels (Severe acute respiratory syndrome coronavirus 2, UniProt P0DTC4); type: biochemical, SARS-CoV-2
# SARS-CoV-2 [1] = settings: in vivo; cited from earlier work
# SARS-CoV-2 [2] = settings: in vivo; cited from earlier work; remark: listed apart in the source
# SARS-CoV-2 [3] = settings: in vivo; cited from earlier work; remark: listed apart in the source
# [4] = tested on: 2-E-induced cell death in Vero E6 cells; type: cell-based, African green monkey; settings: read-out: IC50 Cell protection
# SARS-CoV-2 [5] = type: cell-based; settings: read-out: IC50 Anti-virus
# Chain of 2-E channels (P0DTC4 whole entry, looked up): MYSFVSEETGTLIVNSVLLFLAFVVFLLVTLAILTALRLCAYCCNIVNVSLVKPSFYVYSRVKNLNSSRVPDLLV
molecule,measurement,setting,value
"5-(N, N-hexamethylene)-amiloride [HMA]",cytotoxicity (in words),Vero E6 cells,strong cytotoxicity
same,concentration with inhibitory activity on 2-E channels,2-E channels,≥ 50 µM
COC(=O)C1=C(C)NC(C)=C(C(=O)OC)C1c1ccccc1[N+](=O)[O-] [Nifedipine],effects on 2-E channels,2-E channels,negligible effects
CC[N+](CC)(CC)CC [Tetraethylammonium],effects on 2-E channels,2-E channels,negligible effects
NC1=N[C@H](O)[C@H]2[C@H]3O[C@]4(O)O[C@@H]([C@@H](O)[C@@]2(N1)[C@@H]4O)[C@]3(O)CO [Tetrodotoxin],effects on 2-E channels,2-E channels,negligible effects
NC12CC3CC(CC(C3)C1)C2 [amantadine],concentration with inhibitory activity on 2-E channels,2-E channels,≥ 50 µM
CN[C@H]1C(=O)N[C@@H]2Cc3ccc(cc3)Oc3cc4cc(c3O[C@@H]3O[C@H](C(=O)O)[C@@H](O)[C@H](O)[C@H]3NC(=O)CCCCCCCCC(C)C)Oc3ccc(cc3Cl)[C@@H](O)[C@@H]3NC(=O)[C@H](NC(=O)[C@@H]4NC(=O)[C@@H](NC2=O)c2cc(cc(O)c2Cl)Oc2cc1ccc2O)c1ccc(O)c(c1)-c1c(O[C@H]2O[C@H](CO)[C@@H](O)[C@H](O)[C@@H]2O)cc(O)cc1[C@@H](C(=O)NCCCN(C)C)NC3=O [dalbavancin],prophylactic effects on viral replication and lung injuries,SARS-CoV-2 [1],good prophylactic effects
CCN(CCO)CCCC(C)Nc1ccnc2cc(Cl)ccc12 (stereo not shown) [hydroxychloroquine],virus loading or titers in the respiratory tissues,SARS-CoV-2 [2],failed to reduce virus loading or titers in the respiratory tissues
OC(c1cc(C(F)(F)F)nc2c(C(F)(F)F)cccc12)C1CCCCN1 (stereo not shown) [mefloquine],prophylactic effects on viral replication and lung injuries,SARS-CoV-2 [1],good prophylactic effects
CC[C@H](C)[C@H]1NC(=O)[C@@H](NC(=O)[C@@H](CC(C)C)N(C)C(=O)[C@@H]2CCCN2C(=O)C(C)=O)[C@@H](C)OC(=O)[C@H](Cc2ccc(OC)cc2)N(C)C(=O)[C@@H]2CCCN2C(=O)[C@H](CC(C)C)NC(=O)[C@@H](C)C(=O)[C@H](C(C)C)OC(=O)C[C@@H]1O [plitidepsin] (Pyruvoyl-P[dNMeL]T[X1]LP[NMeY](Me); ester 3-C),prophylactic effects on viral replication and lung injuries,SARS-CoV-2 [1],good prophylactic effects
CCC(CC)COC(=O)[C@H](C)N[P@](=O)(OC[C@H]1O[C@@](C#N)(c2ccc3c(N)ncnn23)[C@H](O)[C@@H]1O)Oc1ccccc1 [remdesivir],virus loading in the respiratory tract,SARS-CoV-2 [3],cannot reduce the virus loading in the respiratory tract
Berbamine [BE-12],IC50,[4],34.3 µM
same,IC50,SARS-CoV-2 [5],14.5 µM
